One assay addresses human DGKα (Homo sapiens (Human), UniProt P23743). In words: biochemical. The settings on record: detergent/lipid micelle substrate; read-out: DGKα IC50. Put shortly:
(§1)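 Full-length human DGKζ (and DGKα), C-terminal His-tagged, Sf9-expressed, with phosphatidylserine/DAG micelles in 50 mM octyl glucoside; buffer 50 mM MOPS pH 7.5, 100 mM NaCl, 10 mM MgCl2, 1 μM CaCl2, 1 mM DTT.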

Assay [1] has as its system pre-activated CD4 T cells and Raji cells. In words: Raji CD4 T Cell IL2 Assay. The assay is classed as cell-based.
A further assay has as its target human DGKζ (Homo sapiens (Human), UniProt Q13574). Put plainly: DGKζ assay (detergent/lipid micelle substrate). The settings on record: detergent/lipid micelle substrate; read-out: DGKζ IC50. The assay is classed as biochemical. The method in brief:
as §1

In assay [2] the test system is Jurkat AP1-luciferase Reporter. In words: DGK AP1-Reporter Assay. The assay is classed as cell-based. The method, then:
The Jurkat AP1-luciferase Reporter was generated using the Cignal Lenti AP1 Reporter (luc) Kit from SABiosciences (CLS-011L).
The sample size was 30 nl per well; and one destination plate per source plate. The cell suspensions were prepared by transferring 40 mL cells (2×20 mL) to clean 50 mL conical tubes. The cells were concentrated by centrifugation (1200 rpm; 5 mins; ambient temperature). […] The cell plates were incubated for 20 minutes at 37° C., and 5% CO2.
During the incubation, anti-CD3 antibody (αCD3) solutions were prepared by mixing 3 μl αCD3 (1.3 mg/mL) with 10 mL medium [final conc=0.4 μg/mL]. Next, 1.5 μl αCD3 (1.3 mg/mL) was mixed with 0.5 mL medium [final conc=4 μg/mL]. After 20 minutes, 10 μl medium was added to all wells in column 1, wells A to M, and 10 μl αCD3 (4 μg/mL) per well was added in column 1, rows N to P for reference. Then using a multi-channel pipette, 10 μl αCD3 (0.4 μg/mL) per well was added. The αCD3 stimulated +/− compound-treated cells were incubated at 37° C., 5% CO2 for 6 hours.
During this incubation period. Steady-Glo (Promega E2520) reagent was slowly thawed on to ambient temperature. Next, 20 μl Steady-Glo reagent per well was added using a multi-drop Combi-dispenser. Bubbles were removed by centrifugation (2000 rpm, ambient temperature, 10 sees). The cells were incubated at room temperature for 5 minutes. Samples were characterized by measuring the Relative Light Units (RLU) with an using Envision Plate Reader Instrument on a luminescence protocol.

Where [3] appears, read: read-out: API-Luciferase Reporter IC50, Table 3.
Setting [4] is: Homo sapiens, Jurkat, read-out: API-Luciferase Reporter IC50, Table 3.
Setting [5] is: Homo sapiens, Jurkat, read-out: DGKAP1 Lucif Reporter IC50, Table 4.

Read-outs that look alike come from different tables or passages of the source.

Chain of human DGKζ (Q13574 other isoform, or with tags, fused parts or gaps): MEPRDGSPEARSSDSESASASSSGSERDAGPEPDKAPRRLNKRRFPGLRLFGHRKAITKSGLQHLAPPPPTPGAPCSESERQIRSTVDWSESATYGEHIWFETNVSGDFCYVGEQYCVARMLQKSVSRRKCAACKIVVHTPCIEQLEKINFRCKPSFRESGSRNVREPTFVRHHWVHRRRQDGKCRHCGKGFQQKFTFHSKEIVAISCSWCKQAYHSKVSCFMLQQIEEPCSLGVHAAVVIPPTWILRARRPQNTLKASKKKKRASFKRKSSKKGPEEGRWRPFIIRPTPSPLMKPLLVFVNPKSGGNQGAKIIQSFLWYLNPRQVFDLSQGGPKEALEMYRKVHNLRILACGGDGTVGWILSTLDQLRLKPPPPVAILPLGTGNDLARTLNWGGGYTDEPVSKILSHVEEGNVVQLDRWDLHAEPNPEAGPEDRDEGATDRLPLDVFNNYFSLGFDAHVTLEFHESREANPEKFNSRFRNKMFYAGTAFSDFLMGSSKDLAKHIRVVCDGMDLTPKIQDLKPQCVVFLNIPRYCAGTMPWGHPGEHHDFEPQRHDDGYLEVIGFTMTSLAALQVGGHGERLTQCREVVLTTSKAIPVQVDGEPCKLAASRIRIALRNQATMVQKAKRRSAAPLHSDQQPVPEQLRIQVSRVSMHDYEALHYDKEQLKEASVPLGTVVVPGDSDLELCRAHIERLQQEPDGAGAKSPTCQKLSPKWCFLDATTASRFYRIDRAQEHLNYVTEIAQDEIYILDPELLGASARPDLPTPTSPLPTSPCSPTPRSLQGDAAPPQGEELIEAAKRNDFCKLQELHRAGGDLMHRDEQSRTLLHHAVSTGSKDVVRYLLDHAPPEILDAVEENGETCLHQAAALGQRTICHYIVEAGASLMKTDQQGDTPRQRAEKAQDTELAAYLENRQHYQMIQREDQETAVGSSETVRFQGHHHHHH
Chain of human DGKα (P23743 other isoform, or with tags, fused parts or gaps): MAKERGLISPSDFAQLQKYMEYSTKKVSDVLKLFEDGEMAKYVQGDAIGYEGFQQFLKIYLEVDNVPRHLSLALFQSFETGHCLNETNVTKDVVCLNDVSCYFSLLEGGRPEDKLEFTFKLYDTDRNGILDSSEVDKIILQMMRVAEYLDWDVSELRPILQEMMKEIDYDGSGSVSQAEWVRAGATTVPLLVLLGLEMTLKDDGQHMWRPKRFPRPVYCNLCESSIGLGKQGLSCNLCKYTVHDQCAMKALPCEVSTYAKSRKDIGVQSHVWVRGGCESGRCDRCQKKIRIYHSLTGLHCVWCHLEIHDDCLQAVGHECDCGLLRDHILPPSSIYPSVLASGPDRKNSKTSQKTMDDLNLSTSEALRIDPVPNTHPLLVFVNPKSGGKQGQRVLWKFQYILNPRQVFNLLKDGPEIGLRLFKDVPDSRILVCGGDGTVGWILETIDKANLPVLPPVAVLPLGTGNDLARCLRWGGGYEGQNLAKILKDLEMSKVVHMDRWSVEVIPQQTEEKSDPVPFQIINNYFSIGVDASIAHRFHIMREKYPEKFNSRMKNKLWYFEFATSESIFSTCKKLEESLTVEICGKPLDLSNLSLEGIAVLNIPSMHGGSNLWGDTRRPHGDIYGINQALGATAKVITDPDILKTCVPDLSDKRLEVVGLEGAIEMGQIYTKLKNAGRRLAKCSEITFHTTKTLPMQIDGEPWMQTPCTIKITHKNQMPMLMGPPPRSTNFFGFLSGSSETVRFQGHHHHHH

With `COc1ccccc1C(c1ccc(F)cc1)N1CCN(c2c([N+](=O)[O-])c(=O)n(C)c3ccc(C#N)nc23)CC1` (single isomer, unassigned) [Example 19, 8-{4-[(4-fluorophenyl)(2-methoxyphenyl)methyl]piperazin-1-yl}-5-methyl-7-nitro-6-oxo-5,6-dihydro-1,5-naphthyridine-2-carbonitrile], the half-maximal inhibitory concentration (IC50) at human DGKα was 13000 nM; in assay [1] (Homo sapiens, Raji), more than 100000 nM; at human DGKζ it was 19000 nM; in assay [2] (setting [3]), 830 nM.
Regarding `COc1ccccc1C(c1ccc(F)cc1)N1CCN(c2c([N+](=O)[O-])c(=O)n(C)c3ccc(C#N)nc23)CC1` (single isomer, unassigned) [Example 20, 8-{4-[(4-fluorophenyl)(2-methoxyphenyl)methyl]piperazin-1-yl}-5-methyl-7-nitro-6-oxo-5,6-dihydro-1,5-naphthyridine-2-carbonitrile], the IC50 on human DGKα is 3300 nM; in assay [1], more than 100000 nM; on human DGKζ, 4300 nM; in assay [2] (setting [3]) it was 400 nM.
On to `Cn1c(=O)c([N+](=O)[O-])c(N2CCN(C(c3ccccc3)c3ccccc3O)CC2)c2nc(Br)ccc21` (single isomer, unassigned) [Example 78, 6-bromo-4-(4-((2-hydroxyphenyl)(phenyl)methyl)piperazin-1-yl)-1-methyl-3-nitro-1,5-naphthyridin-2(1H)-one], for which the 50% inhibitory concentration (IC50) at human DGKα was 12000 nM; in assay [1], more than 100000 nM; on human DGKζ, more than 240000 nM; in assay [2] (setting [4]), 140 nM.
In the case of `C#CCn1c(=O)c([N+](=O)[O-])c(N2CCN(C(c3ccc(F)cc3)c3ccc(F)cc3O)CC2)c2nc(C#N)ccc21` (single isomer, unassigned) [Example 120, 8-(4-((4-fluoro-2-hydroxyphenyl)(4-fluorophenyl)methyl)piperazin-1-yl)-7-nitro-6-oxo-5-(prop-2-yn-1-yl)-5,6-dihydro-1,5-naphthyridine-2-carbonitrile], the IC50 on human DGKα was 18000 nM; on human DGKζ, more than 81000 nM; in assay [2] (setting [3]) it was 1300 nM.
Regarding `C#CCn1c(=O)c([N+](=O)[O-])c(N2CCN(C(c3ccc(F)cc3)c3ccccc3OC)CC2)c2nc(C#N)ccc21` (single isomer, unassigned) [Example 131, 8-(4-((4-fluorophenyl)(2-methoxyphenyl)methyl)piperazin-1-yl)-7-nitro-6-oxo-5-(prop-2-yn-1-yl)-5,6-dihydro-1,5-naphthyridine-2-carbonitrile], the IC50 on human DGKα turned out to be 11000 nM; on human DGKζ, 370 nM; in assay [2] (setting [4]), 500 nM.
The corresponding values for `COc1ccccc1C(c1ccc(F)cc1)N1CCN(c2c(C#N)c(=O)n(C)c3ccc(Br)nc23)CC1` (centres unmarked) [Example 12, 6-bromo-4-{4-[(4-fluorophenyl)(2-methoxyphenyl)methyl]piperazin-1-yl}-1-methyl-2-oxo-1,2-dihydro-1,5-naphthyridine-3-carbonitrile] are 1000 nM, more than 81000 nM and 580 nM.
The corresponding values for `Cn1c(=O)c([N+](=O)[O-])c(N2CCN(C(CO)c3ccc(F)cc3)CC2)c2nc(C#N)ccc21` (centres unmarked) [Example 37, 8-{4-[1-(4-fluorophenyl)-2-hydroxyethyl]piperazin-1-yl}-5-methyl-7-nitro-6-oxo-5,6-dihydro-1,5-naphthyridine-2-carbonitrile] are 1800 nM, 38000 nM and 2830 nM.
As for `CC(c1ccc(F)cc1)N1CCN(c2c([N+](=O)[O-])c(=O)n(C)c3ccc(C#N)nc23)CC1` (centres unmarked) [Example 43, 8-(4-(1-(4-fluorophenyl)ethyl)piperazin-1-yl)-5-methyl-7-nitro-6-oxo-5,6-dihydro-1,5-naphthyridine-2-carbonitrile], the IC50 at human DGKα is 37 nM; on human DGKζ, 6300 nM; in assay [2] (setting [4]), 400 nM.
`C#CCn1c(=O)c(C#N)c(N2CCN(Cc3c(C)cc(C)cc3O)CC2)c2nc(Br)ccc21` [Example 69, 6-bromo-4-(4-(2-hydroxy-4,6-dimethylbenzyl)piperazin-1-yl)-2-oxo-1-(prop-2-yn-1-yl)-1,2-dihydro-1,5-naphthyridine-3-carbonitrile]: the 50% inhibitory concentration (IC50) on human DGKα was 1300 nM; in assay [1] (Homo sapiens, Raji), more than 100000 nM; on human DGKζ it was 13000 nM; in assay [2] (setting [4]), 510 nM.
The corresponding values for `C#CCn1c(=O)c([N+](=O)[O-])c(N2CCN(C3CCc4ccc(OC)cc43)CC2)c2nc(C#N)ccc21` (centres unmarked) [Example 138, 8-(4-(6-methoxy-2,3-dihydro-1H-inden-1-yl)piperazin-1-yl)-7-nitro-6-oxo-5-(prop-2-yn-1-yl)-5,6-dihydro-1,5-naphthyridine-2-carbonitrile] are 32000 nM, more than 100000 nM, 730 nM and 660 nM.
The corresponding values for `COCCn1c(=O)c([N+](=O)[O-])c(N2CCN(C3CCc4ccc(OC)cc43)CC2)c2nc(C#N)ccc21` (centres unmarked) [Example 146, 8-(4-(6-methoxy-2,3-dihydro-1H-inden-1-yl)piperazin-1-yl)-5-(2-methoxyethyl)-7-nitro-6-oxo-5,6-dihydro-1,5-naphthyridine-2-carbonitrile] are more than 240000 nM, more than 100000 nM, 36000 nM and 1870 nM.
For the compound `Cn1c(=O)c(C#N)c(N2CCN(Cc3ccccc3N)CC2)c2nc(Br)ccc21` [Example 211, 4-(4-(2-aminobenzyl)piperazin-1-yl)-6-bromo-1-methyl-2-oxo-1,2-dihydro-1,5-naphthyridine-3-carbonitrile], the IC50 is 250 nM on human DGKα, more than 240000 nM at human DGKζ and 520 nM in assay [2] (setting [4]).
With `Cn1c(=O)c(C#N)c(N2CCN(Cc3ccccc3NS(C)(=O)=O)CC2)c2nc(Br)ccc21` [Example 212, N-(2-((4-(6-bromo-3-cyano-1-methyl-2-oxo-1,2-dihydro-1,5-naphthyridin-4-yl)piperazin-1-yl)methyl)phenyl)methanesulfonamide], the concentration for half-maximal inhibition (IC50) at human DGKα is 2200 nM; at human DGKζ, more than 240000 nM; in assay [2] (setting [4]) it was 1140 nM.
In the case of `Cn1c(=O)c(C#N)c(N2CCN(Cc3ccc(O)c(F)c3)CC2)c2nc(C#N)ccc21` [Example 363, 8-{4-[(3-fluoro-4-hydroxyphenyl)methyl]piperazin-1-yl}-5-methyl-6-oxo-5,6-dihydro-1,5-naphthyridine-2,7-dicarbonitrile], the IC50 at human DGKα was 150 nM; in assay [1] (Homo sapiens, Raji) it was more than 100000 nM; at human DGKζ, more than 240000 nM; in assay [2] (setting [4]), 10000 nM.
Turning to `Cc1ccc(F)c(CN2CCN(c3c(C#N)c(=O)n(C)c4ccc(Cl)nc34)CC2)c1` [Example 364, 6-chloro-4-{4-[(2-fluoro-5-methylphenyl)methyl]piperazin-1-yl}-1-methyl-2-oxo-1,2-dihydro-1,5-naphthyridine-3-carbonitrile], the IC50 was 1100 nM on human DGKα; more than 100000 nM in assay [1] (Homo sapiens, Raji); more than 240000 nM at human DGKζ; 1570 nM in assay [2] (setting [4]); 10000 nM in assay [2] (setting [5]).
The corresponding values for `COc1cccc(Cl)c1CN1CCN(c2c(C#N)c(=O)n(C)c3ccc(Cl)nc23)CC1` [Example 365, 6-chloro-4-{4-[(2-chloro-6-methoxyphenyl)methyl]piperazin-1-yl}-1-methyl-2-oxo-1,2-dihydro-1,5-naphthyridine-3-carbonitrile] are 3500 nM, more than 100000 nM, 190000 nM, 2220 nM and 10000 nM.
Take `Cn1c(=O)c(C#N)c(N2CCN(Cc3ccc(C#N)cc3F)CC2)c2nc(Cl)ccc21` [Example 379, 6-chloro-4-{4-[(4-cyano-2-fluorophenyl)methyl]piperazin-1-yl}-1-methyl-2-oxo-1,2-dihydro-1,5-naphthyridine-3-carbonitrile]: the values for the IC50 (at human DGKα; at human DGKζ; in assay [2] (setting [4])) were 380 nM, more than 240000 nM and 7840 nM, respectively.
Taken in the same sequence, the figures for `Cn1c(=O)c(C#N)c(N2CCN(Cc3c(O)cccc3Cl)CC2)c2nc(Br)ccc21` [Example 390, 6-bromo-4-{4-[(2-chloro-6-hydroxyphenyl)methyl]piperazin-1-yl}-1-methyl-2-oxo-1,2-dihydro-1,5-naphthyridine-3-carbonitrile] were 870 nM, more than 240000 nM and 800 nM.

As usually defined, the IC50 is the concentration needed to halve the response being measured.
